Assay results: PubChem BioAssay (NCI)
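Values below derive from 48-hour exposures of cells grown in 96-well plates, with endpoints linearly interpolated between the two concentrations bracketing the appropriate inhibition level. Here, GI50 denotes the concentration required for 50% inhibition of growth. The concentration for full growth arrest is given as TGI.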

Tests used:
Test in all cases: DTP human tumour cell line panel, 48 h
[1] = test system: SN12C renal
[2] = test system: HL-60(TB) leukemia
[3] = test system: MCF7 breast
[4] = test system: EKVX NSCLC
[5] = test system: SF-295 CNS
[6] = test system: HS 578T breast
[7] = test system: HOP-92 NSCLC
[8] = test system: MDA-MB-468 breast
[9] = test system: KM12 colon
[10] = test system: MDA-MB-231 breast
[11] = test system: K-562 leukemia
[12] = test system: SNB-75 CNS
[13] = test system: HT29 colon
[14] = test system: U251 CNS
[15] = test system: HCT-15 colon
[16] = test system: NCI/ADR-RES ovarian
[17] = test system: NCI-H226 lung
[18] = test system: MDA-MB-435
[19] = test system: IGROV1 ovarian
[20] = test system: LOX IMVI melanoma
[21] = test system: HOP-62 NSCLC
[22] = test system: SK-MEL-2 melanoma
[23] = test system: A549 NSCLC
[24] = test system: UACC-257 melanoma
[25] = test system: COLO 205 colon
[26] = test system: OVCAR-8 ovarian
[27] = test system: MOLT-4 leukemia
[28] = test system: SF-268 CNS
[29] = test system: 786-0 renal
[30] = test system: SK-MEL-28 melanoma
[31] = test system: A498 renal
[32] = test system: DU-145 prostate
[33] = test system: HCC-2998 colon
[34] = test system: SK-OV-3 ovarian
[35] = test system: SNB-19 CNS
[36] = test system: RPMI-8226 leukemia
[37] = test system: BT-549 breast
[38] = test system: OVCAR-3 ovarian
[39] = test system: T-47D breast
[40] = test system: UACC-62 melanoma
[41] = test system: M14 melanoma
[42] = test system: OVCAR-5 ovarian
[43] = test system: OVCAR-4 ovarian
[44] = test system: ACHN renal
[45] = test system: SK-MEL-5 melanoma
[46] = test system: HCT-116 colon
[47] = test system: TK-10 renal
[48] = test system: SF-539 CNS
[49] = test system: NCI-H23 lung
[50] = test system: PC-3 prostate
[51] = test system: RXF 393 renal
[52] = test system: UO-31 renal
[53] = test system: CAKI-1 renal
[54] = test system: CCRF-CEM leukemia
[55] = test system: MALME-3M melanoma

For `Nc1cc(-c2c[nH]c3ccc(Cl)cc23)nc2cc(-c3c[nH]c4ccccc34)nn12`, the GI50 [1] was 3.63 µM, the TGI [1] was 14.3 µM and the GI50 [2] was 2.09 µM. It also gave a TGI [2] of 7.43 µM, a GI50 [3] of 1.83 µM and a TGI [3] of 3.96 µM. It also gave a GI50 [4] of 2.44 µM, a TGI [4] of 8.51 µM and a GI50 [5] of 1.81 µM. For the same molecule, the TGI [5] was 3.61 µM, the GI50 [6] was 3.25 µM and the TGI [6] was 16.4 µM. It also gave a GI50 [7] of 2.1 µM, a TGI [7] of 5.65 µM and a GI50 [8] of 1.45 µM. It also gave a TGI [8] of 3.2 µM, a GI50 [9] of 2.02 µM and a TGI [9] of 4.27 µM. The GI50 [10] was 1.96 µM, the TGI [10] was 3.6 µM and the GI50 [11] was 2.15 µM. It also gave a TGI [11] of 5.7 µM, a GI50 [12] of 1.71 µM and a TGI [12] of 9.69 µM. The GI50 [13] was 2.04 µM, the TGI [13] was 4.62 µM and the GI50 [14] was 1.8 µM. The TGI [14] was 4.22 µM, the GI50 [15] was 1.61 µM and the TGI [15] was 3.24 µM. It also gave a GI50 [16] of 3.45 µM, a TGI [16] of 14.7 µM and a GI50 [17] of 3.52 µM. For the same molecule, the TGI [17] was 28 µM, the GI50 [18] was 2.42 µM and the TGI [18] was 7.27 µM. For the same molecule, the GI50 [19] was 3.34 µM, the TGI [19] was 12.7 µM and the GI50 [20] was 1.75 µM. The TGI [20] was 3.22 µM, the GI50 [21] was 3.1 µM and the TGI [21] was 10.7 µM. The GI50 [22] was 2.28 µM, the TGI [22] was 6.05 µM and the GI50 [23] was 2.76 µM. The TGI [23] was 12.1 µM, the GI50 [24] was 2.99 µM and the TGI [24] was 12.2 µM. For the same molecule, the GI50 [25] was 1.75 µM, the TGI [25] was 3.6 µM and the GI50 [26] was 3.19 µM. The TGI [26] was 17.3 µM, the GI50 [27] was 1.86 µM and the TGI [27] was 5.04 µM. The GI50 [28] was 2.75 µM, the TGI [28] was 12.7 µM and the GI50 [29] was 1.67 µM. It also gave a TGI [29] of 3.67 µM, a GI50 [30] of 1.87 µM and a TGI [30] of 4.23 µM. It also gave a GI50 [31] of 2.09 µM, a TGI [31] of 7.69 µM and a GI50 [32] of 3.56 µM. For the same molecule, the TGI [32] was 12.9 µM, the GI50 [33] was 1.86 µM and the TGI [33] was 3.6 µM. The GI50 [34] was 6.25 µM, the TGI [34] was 20 µM and the GI50 [35] was 2.95 µM. The TGI [35] was 10.7 µM, the GI50 [36] was 2.29 µM and the TGI [36] was 6.98 µM. It also gave a GI50 [37] of 4.98 µM, a TGI [37] of 17.9 µM and a GI50 [38] of 2.9 µM. The TGI [38] was 10.5 µM, the GI50 [39] was 2.61 µM and the GI50 [40] was 1.72 µM. For the same molecule, the TGI [40] was 3.55 µM, the GI50 [41] was 1.85 µM and the TGI [41] was 4.17 µM. The GI50 [42] was 1.9 µM, the TGI [42] was 4.32 µM and the GI50 [43] was 3.65 µM. The TGI [43] was 17.1 µM, the GI50 [44] was 2.76 µM and the TGI [44] was 7.77 µM. The GI50 [45] was 2.05 µM, the TGI [45] was 4.42 µM and the GI50 [46] was 1.67 µM. It also gave a TGI [46] of 3.12 µM, a GI50 [47] of 2.9 µM and a TGI [47] of 13.3 µM. It also gave a GI50 [48] of 1.81 µM, a TGI [48] of 3.47 µM and a GI50 [49] of 2.23 µM. The TGI [49] was 5.5 µM, the GI50 [50] was 2.59 µM and the TGI [50] was 7.89 µM. For the same molecule, the GI50 [51] was 2.23 µM, the TGI [51] was 6.61 µM and the GI50 [52] was 2.59 µM. The TGI [52] was 10.4 µM, the GI50 [53] was 1.99 µM and the TGI [53] was 5.28 µM. For the same molecule, the GI50 [54] was 2.99 µM, the TGI [54] was 9.39 µM and the GI50 [55] was 1.78 µM. The TGI [55] was 3.23 µM.
